Reference: ChEMBL document CHEMBL5325399, “Pleiotropic effects of a mitochondrion-targeted glutathione reductase inhibitor on restraining tumor cells” (Eur J Med Chem, 2023)
Calls of active or inactive are those of the source. The rule behind the calls is not given here.

Assays:
Cell membrane [1] = experiment: Dissipation of mitochondrial membrane potential in human HeLa cells assessed as proportion of cells with low MMP measured after 24 hrs by JC-1 staining based flow cytometry (reference value: 3.01%); settings: Mitochondria
Cell membrane [2] = experiment: Dissipation of mitochondrial membrane potential in human HeLa cells assessed as proportion of cells with high MMP measured after 24 hrs by JC-1 staining based flow cytometry (reference value: 96.54%); settings: Mitochondria
A549 = experiment: Cytotoxicity against human A549 cells assessed as reduction in cell viability measured after 48 hrs; format: functional, cell-based; settings: A549, 48 h
[3] = target: T1, Glutathione reductase, mitochondrial (Homo sapiens) (UniProt P00390); experiment: Covalent binding affinity to Cys278 residue of glutathione reductase (unknown origin) by mass spectrometry
T1 sequence (whole entry): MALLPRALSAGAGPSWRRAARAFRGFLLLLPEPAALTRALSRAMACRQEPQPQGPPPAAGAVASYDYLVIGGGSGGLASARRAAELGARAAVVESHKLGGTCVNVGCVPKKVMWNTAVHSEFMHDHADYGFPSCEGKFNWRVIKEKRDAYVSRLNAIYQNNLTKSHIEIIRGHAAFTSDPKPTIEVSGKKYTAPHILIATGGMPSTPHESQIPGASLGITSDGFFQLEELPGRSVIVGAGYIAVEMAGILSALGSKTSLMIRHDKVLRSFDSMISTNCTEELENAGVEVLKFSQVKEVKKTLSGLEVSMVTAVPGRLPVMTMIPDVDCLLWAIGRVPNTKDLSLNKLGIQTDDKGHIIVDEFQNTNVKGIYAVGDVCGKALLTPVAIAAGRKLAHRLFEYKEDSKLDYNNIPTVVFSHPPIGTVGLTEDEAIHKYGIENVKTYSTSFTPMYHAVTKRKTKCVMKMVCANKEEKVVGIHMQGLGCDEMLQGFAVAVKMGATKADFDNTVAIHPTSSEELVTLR

HeLa [4] = experiment: Cytotoxicity against human HeLa cells assessed as reduction in cell viability measured after 48 hrs; format: functional, cell-based
HepG2 [5] = experiment: Cytotoxicity against human HepG2 cells assessed as reduction in cell viability measured after 48 hrs; format: functional, cell-based; settings: HepG2, 48 h
[6] = Drug uptake in human HeLa cells mitochondria measured after 6 hrs; format: ADME
MCF7 = experiment: Cytotoxicity against human MCF7 cells assessed as reduction in cell viability measured after 48 hrs; format: functional, cell-based; settings: MCF7, 48 h
HCT-116 = experiment: Cytotoxicity against human HCT-116 cells assessed as reduction in cell viability measured after 48 hrs; format: functional, cell-based; settings: HCT-116, 48 h
[7] = target: T2, Glutathione reductase, mitochondrial (Homo sapiens, UniProt P00390); experiment: Inhibition of glutathione reductase (unknown origin)
T2 sequence (P00390 whole entry): T1 sequence (whole entry)

HeLa [8] = experiment: Inhibition of mitochondrial respiration in human HeLa cells assessed as increase in proton leakage; format: functional, cell-based
Cell membrane [9] = experiment: Dissipation of mitochondrial membrane potential in human HeLa cells assessed as proportion of cells with high MMP at 0.5 uM measured after 24 hrs by JC-1 staining based flow cytometry (reference value: 96.54%); settings: Mitochondria
HeLa [10] = experiment: Induction of autophagy in human HeLa cells assessed as autophagosomes vacuole formation; format: functional, cell-based
[11] = Increase in oxidized glutathione (GSSG) levels in human HeLa cells relative to control; format: functional
HeLa [12] = experiment: Induction of autophagy in human HeLa cells assessed as increase in ratio of lipidated LC3B-II to LC3B-I incubated for 24 hrs by immunoblotting analysis; format: functional, cell-based; settings: dose 0.5-10 µM
HeLa [13] = experiment: Increase in oxidized glutathione (GSSG) levels in human HeLa cells assessed as decrease in ratio of intracellular GSH to GSSG at 1 to 20 uM; format: functional, cell-based; settings: dose 1-20 µM
HeLa [14] = experiment: Inhibition of mitochondrial respiration in human HeLa cells assessed as decrease in oxygen consumption rate at 2 uM incubated for 24 hrs by Seahorse XF-bioenergetic system analysis; format: functional, cell-based
Cell membrane [15] = experiment: Dissipation of mitochondrial membrane potential in human HeLa cells assessed as proportion of cells with low MMP at 5 uM measured after 24 hrs by JC-1 staining based flow cytometry (reference value: 3.01%); settings: Mitochondria
HepG2 [16] = experiment: Inhibition of glycolysis in human HepG2 cels assessed as decrease in extracellular acidification rate; format: functional, cell-based
HeLa [17] = experiment: Induction of mitochondrial morphological changes in human HeLa cells assessed as multilayered vesicles formation at IC50 incubated for 48 hrs by transmission electron microscopy; format: functional, cell-based
HeLa [18] = experiment: Induction of autophagy in human HeLa cells assessed as downregulation of p62 expression incubated for 24 hrs by immunoblotting analysis; format: functional, cell-based; settings: dose 0.5-10 µM
HeLa [19] = experiment: Induction of ROS production in human HeLa cells by DCFDA staining based fluorescence analysis; format: functional, cell-based
HeLa [20] = experiment: Decrease in reduced glutathione (GSH) levels in human HeLa cells at 1 to 5 uM incubated for 6 hrs by Thiol-tracker Violet based confocal imaging analysis; format: functional, cell-based; settings: dose 1-5 µM
HeLa [21] = experiment: Inhibition of glycolysis in human HeLa cells assessed as decrease in extracellular acidification rate at 2 uM; format: functional, cell-based
HeLa [22] = experiment: Cytotoxicity against GR-knock out human HeLa cells assessed as reduction in cell viability at 10 uM incubated for 48 hrs; format: functional, cell-based
HeLa [23] = experiment: Induction of mitophagy in human HeLa cells assessed as colocalization of mitochondria and lysosomes by confocal laser scanning microscopy; format: functional, cell-based
Cell membrane [24] = experiment: Dissipation of mitochondrial membrane potential in human HeLa cells assessed as proportion of cells with low MMP at 0.5 uM measured after 24 hrs by JC-1 staining based flow cytometry (reference value: 3.01%); settings: Mitochondria
[25] = target: T1, Glutathione reductase, mitochondrial (Homo sapiens); experiment: Inhibition of glutathione reductase in human HeLa cells mitochondria; settings: concentration not given here
HepG2 [26] = experiment: Inhibition of mitochondrial respiration in human HepG2 cells assessed as decrease in oxygen consumption rate by Seahorse XF-bioenergetic system analysis; format: functional, cell-based
[27] = target: T1, Glutathione reductase, mitochondrial (Homo sapiens); experiment: Inhibition of glutathione reductase in human HeLa cells; format: cell-based; settings: concentration not given here
HeLa [28] = experiment: Induction of mitochondrial morphological changes in human HeLa cells assessed as disappearance of cristae and vacuolar mitochondrial formation at 10 uM incubated for 48 hrs by transmission electron microscopy; format: functional, cell-based
HeLa [29] = experiment: Induction of mitophagy in human HeLa cells assessed as localization of mitochondria in vacuoles at 10 uM incubated for 48 hrs by transmission electron microscopy; format: functional, cell-based
Cell membrane [30] = experiment: Dissipation of mitochondrial membrane potential in human HeLa cells assessed as increase in green fluorescence intensity at 0.5 to 5 uM measured after 24 hrs by JC-1 staining based fluorescence microscopy; settings: Mitochondria, dose 0.5-5 µM
HeLa [31] = experiment: Inhibition of mitochondrial respiration in human HeLa cells assessed as decrease in basal respiration; format: functional, cell-based
HeLa [32] = experiment: Inhibition of mitochondrial respiration in human HeLa cells assessed as decrease in ATP production capacity; format: functional, cell-based
HeLa [33] = experiment: Decrease in reduced glutathione (GSH) levels in human HeLa cells; format: functional, cell-based
HeLa [34] = experiment: Induction of mitochondrial morphological changes in human HeLa cells assessed as increase in Mitofilin expression at 2 uM by immunofluorescence analysis; format: functional, cell-based
Cell membrane [35] = experiment: Dissipation of mitochondrial membrane potential in human HeLa cells assessed as proportion of cells with high MMP at 5 uM measured after 24 hrs by JC-1 staining based flow cytometry (reference value: 96.54%); settings: Mitochondria

SMILES: N#CC(C#N)=NNc1cccc(Cl)c1
- Activity (Cell membrane [1]): 98.8%
- Activity (Cell membrane [2]): 1.24%

SMILES: COc1ccc(C(=O)/C=C/c2cccc([N+](=O)[O-])c2)cc1F
- IC50 (A549): > 100 µM
- Activity [3]: inactive
- IC50 (HeLa [4]): > 50 µM
- IC50 (HepG2 [5]): > 50 µM
- Drug uptake [6]: 12%
- IC50 (MCF7): > 100 µM
- IC50 (HCT-116): > 50 µM
- IC50 [7]: Not Active

SMILES: O=C(/C=C/c1cccc([N+](=O)[O-])c1)c1ccc(OCc2cn(CCCC[P+](c3ccccc3)(c3ccccc3)c3ccccc3)nn2)c(F)c1
- inhibition (HeLa [8]): Active
- IC50 (A549): 10.2 µM
- Activity (Cell membrane [9]): 49.4%
- Activity [3]: Active
- Activity (HeLa [10]): Active
- fold change (FC) [11]: 2
- Activity (HeLa [12]): Dose-Dependent Effect
- Activity (HeLa [13]): Active
- inhibition (HeLa [14]): Active
- Activity (Cell membrane [15]): 80.7%
- inhibition (HepG2 [16]): Active
- Activity (HeLa [17]): Active
- IC50 (HeLa [4]): 2.4 µM
- Activity (HeLa [18]): Dose-Dependent Effect
- Activity (HeLa [19]): Active
- IC50 (HepG2 [5]): 4.6 µM
- inhibition (HeLa [20]): inactive
- inhibition (HeLa [21]): Active
- Activity (HeLa [22]): inactive
- Activity (HeLa [23]): Active
- Activity (Cell membrane [24]): 50.1%
- Drug uptake [6]: 33%
- inhibition [25]: 50%
- inhibition (HepG2 [26]): Active
- inhibition [27]: 20%
- Activity (HeLa [28]): Active
- Activity (HeLa [29]): Active
- IC50 (MCF7): 17.4 µM
- IC50 (HCT-116): 8.2 µM
- Activity (Cell membrane [30]): Active
- IC50 ([7]; read-out: IC50): 0.59 µM
- inhibition (HeLa [31]): Active
- inhibition (HeLa [32]): Active
- inhibition (HeLa [33]): inactive
- Activity (HeLa [34]): Active
- Activity (Cell membrane [35]): 15.6%
